Peptide text beside a SMILES is read from it.
Columns and labels:
Assay type in all cases: cell-based, Human
HepG2 cells = details: 50 or 100 µM peptide 24 h, then 20 mM AAPH 24 h, MTT
Experimental: Human hepatocellular carcinoma (HepG2) cells were purchased from the American Type Culture Collection (ATCC; Manassas, VA, USA). They were cultured at 37 °C in a humidified incubator with 5% CO2 and 95% air. Dulbecco’s Minimal Essential Media (DMEM) supplemented with 10% (v/v) Fetal Bovine Serum was used for the maintenance of cells. […] The MTT (3-(4,5-dimethylthiazol-2-yl)-2,5-diphenyltetrazolium bromide) assay, as described in an earlier research, was used for cytotoxicity and cytoprotective tests. […] Following another 24 h incubation, cells were washed twice with 200 µL of PBS. Ten µL of MTT solution (5 mg/mL in PBS) and 100 µL of media were added to each well. After 1 h, MTT solution was removed, and 50 µL DMSO were added. Absorbances were recorded at 570 nm with 630 nm background subtraction using a BioTek Epoch™ microplate reader (Fisher Scientific, Nepean, ON, Canada). Untreated cells were used as negative control (NC) and cells treated with only AAPH were used as positive control (PC).

catalase (CAT) = experiment: Catalase activity of lysates of AAPH-stressed cells; details: then AAPH 24 h; for Further increase of CAT activity compared to PC cells: 50 µM peptide 24 h
Experimental: Cells were seeded at 1 × 10^6 cells/plate in 60 mm tissue culture plates and allowed to grow for 24 h. In each plate, cells were washed twice with 4 mL of PBS (pH 7.2), and treated with 4 mL peptide samples (P1, P2, P6, P7) dissolved in culture media at 50 or 100 µM for 24 h. After removal of peptide solutions, cells were washed twice with 4 mL of PBS/plate and treated with 4 mL of […] dissolved in culture media and allowed to incubate for 24 h. Cells in each culture plate were harvested by incubation (5 min) with 0.5 mL of 0.25% trypsin, addition of 1 mL of culture media and centrifugation at 1000× g for 5 min. Cell pellets were washed with ice cold PBS (500 µL each) until no pink color was observed, re-suspended in ice cold PBS (300 µL) for the superoxide dismutase (SOD) assay, 500 µL for glutathione peroxidase (GPx) and catalase (CAT) assays. For total glutathione assay, 300 µL of 5% ice cold sulfosalicylic acid bubbled with 100% nitrogen was used for cell lysis. Cells were lysed by sonication on ice for 1 min using a probe-type sonicator (Vibra-Cell, Sonics and Materials Inc., Newtown, CT, USA) pulsing at 15 s on and 10 s off cycles. Following centrifugation of cell lysate at 13,000× g (4 °C), pellets containing cell debris were discarded, while supernatants were used for determination of glutathione content. Protein contents were determined using a modified Lowry assay. To measure the catalase activity, 1790 µL potassium phosphate buffer (50 mM, pH 7.0) was mixed with 200 µL cell lysate in a UV cuvette. Ten µL of H2O2 (30%) was added, and removal of H2O2 by catalase was followed at 240 nm using a Cary 50 Bio UV-Vis spectrophotometer with 18-cell changer (Varian Inc., Mississauga, ON, Canada). The activity was expressed as a percentage of control.

[1] = tested on: intracellular ROS of HepG2 cells; experiment: Intracellular reactive oxygen species, DCFH2-DA assay; details: 100 µM peptide 24 h, then 20 mM AAPH 24 h, 40 µM DCFH2-DA, fluorescence 60 min
Experimental: The measurement of intracellular ROS was determined using a method described by Wolfe and Rui, with modifications. HepG2 cells were seeded at 4 × 10^4 cells/well in a 96-well tissue culture plate and were treated for 24 h with 100 µM of peptide dissolved in media, with the exception of NC and PC controls. Media was removed, cells washed twice with PBS, incubated (24 h) with 20 mM AAPH and washed again with PBS. Two hundred µL of 40 µM DCFH2-DA dissolved in buffer was added, and fluorescent intensity was immediately recorded at 2 min intervals for a total of 60 min. The percentage increase in fluorescent intensity was calculated as shown in Equation (1). (1) Fluorescent increase (%)=Final reading−Initial reading/Initial reading×100

## CC[C@H](C)[C@H](NC(=O)[C@H](Cc1ccc(O)cc1)NC(=O)[C@@H](NC(=O)[C@H](CC(C)C)NC(=O)CNC(=O)[C@@H]1CCCN1C(=O)[C@H](C)NC(=O)[C@H](CC(N)=O)NC(=O)[C@H](Cc1c[nH]cn1)NC(=O)[C@@H](N)Cc1ccc(O)cc1)C(C)C)C(=O)N[C@@H](CC(C)C)C(=O)O [P6] (H-YHNAPGLVYIL-OH; N-terminus and C-terminus assumed)
HepG2 cells
  Cytoprotective effect against AAPH-induced damage: cytoprotective
Catalase (CAT)
  Further increase of CAT activity compared to PC cells: 60%
[1]
  Intracellular reactive oxygen species: reduced production of intracellular reactive oxygen species

## CC[C@H](C)[C@H](NC(=O)[C@H](Cc1ccc(O)cc1)NC(=O)[C@@H](NC(=O)[C@H](CC(C)C)NC(=O)CN)C(C)C)C(=O)N[C@@H](CC(C)C)C(=O)O [P2] (H-GLVYIL-OH; N-terminus and C-terminus assumed)
Catalase (CAT)
  Further increase of CAT activity compared to PC cells: 60%
Catalase (CAT); 100 µM peptide 24 h
  Effect on CAT activity: almost doubled
[1]
  Intracellular reactive oxygen species: reduced production of intracellular reactive oxygen species

From publication PMC5187537, “Antioxidant Activity of Oat Proteins Derived Peptides in Stressed Hepatic HepG2 Cells” (Antioxidants, 2016)
